Test results from US6613875B1, “Cyclic peptide tube” (The Scripps Research Institute, priority 1993, dated 2003).
Square brackets hold non-standard residues; d marks the D form.

Experiment: Proton transport (collapse of pH gradient) in vesicles with entrapped 5(6)-carboxyfluorescein
Format: biochemical
Settings: vesicles pH 6.5 inside, pH 5.5 outside
Text: The proton efflux is expressed in terms of the fractional change in the fluorescence intensity of vesicle entrapped 5(6)-carboxyfluorescein as a function of time (sampling time was at 0.3 seconds interval). Equal molar amounts of channel forming compounds were used in each experiment to allow direct comparisons of channel-mediated proton transport activity. The amount of added channel forming compounds in each experiment ranged from of 2 to 20 nmoles corresponding to approximately 150 channels per liposome for the lowest concentrations to 1100 channels per liposome for the highest amount of added compounds.
Formation of transmembrane channels was also inferred from its highly efficient proton transport activity. Vesicles were prepared having pH 6.5 inside and pH 5.5 in the outside bulk solution. The collapse of the imposed pH gradient in these vesicles, upon formation of the putative transmembrane channel structure, was studied by monitoring the fluorescence intensity of an entrapped pH-sensitive dye. (V.E. Carmichael et al, in J.Am. Chem. Soc. (1989), vol. 111, pages 767-769). […] Unilamellar vesicles were prepared by the reverse-phase evaporation using DPPC, OPPC, cholestrol in the ratio of 1:1:2 in a solution containing 5(6)-carboxyfluorescein (20 mM in phosphate/saline buffer: 137 mM NaCl, 2.6 mM KCl, 6.4 mM Na2HPO4, 1.4 mM KH2PO4, pH 6.5) according to the method of F. Szoka et al. in Proc. Natl. Acad. Sci. USA (1978), vol. 75, pages 4194-4198. […] Vesicles formed in this way are approximately 150 nanometer in diameter as determined by electron microscopy. […] To the cuvett, through an injector port, […] of the channel forming compounds in DMSO was added with continuous fluorescence monitoring at 520 nm (excitation at 470 nm). The observed data were then normalized for comparison into the fractional change in fluorescence ((I0−It)/(I0−I∞)) (V. E. Carmichael et al, in J.Am. Chem. Soc. (1989), vol. 111, pages 767-769)). […]

cyclo[-(Trp-D-Leu)3-Gln-D-Leu-] (cyclo(W[dL]W[dL]W[dL]Q[dL]); SMILES CC(C)C[C@H]1NC(=O)[C@H](CCC(N)=O)NC(=O)[C@@H](CC(C)C)NC(=O)[C@H](Cc2c[nH]c3ccccc23)NC(=O)[C@@H](CC(C)C)NC(=O)[C@H](Cc2c[nH]c3ccccc23)NC(=O)[C@@H](CC(C)C)NC(=O)[C@H](Cc2c[nH]c3ccccc23)NC1=O) [eight residue ion channel forming cyclic peptide, approximately 7.5 Å pore]
collapse of the imposed pH gradient upon addition of peptide: rapid collapse of the pH gradient
